Results reported in patent publication US20150306107A1, “SAA Derivative Compound Restores eNOS And Inhibits Oxidative Stress-Induced A Diseases In Hypoxia” (JANSFAT BIOTECHNOLOGY CO., LTD., priority 2014, published 2015).
Counter-ions that a name gives are not always drawn.

Key:
[1] = tested on: eNOS; test: Western blotting of eNOS expression in rat carvenosus strip, acute hypoxia; assay type: cell-based; design: unit not given here
[2] = tested on: eNOS; test: Western blotting of eNOS expression in isolated rat pulmonary artery ring, short-term (acute) hypoxia or normoxia; assay type: cell-based; conditions: acute hypoxia, Normoxia 100, Hypoxia 65.3 ± 7.8
Description: (§1) In our in vitro short-term experiment, isolated rat pulmonary artery was grown under normoxia (20% O2) or hypoxia (1% O2) at 37° C. for 24 hrs as was previously done (Wu BN, et al. Int J Immunopathol Pharmacol 24:925, 2011). The heart weight and body weight ratio (HW/BW) of the rats treated with one of SPAAX-1, SPAAX-1 RX complex, Sildenafil or Sildenafil RX complex each measured on the 21st hypoxic day. All animal care and the experimental protocols of this study were approved by the Animal Care and Use Committee of the Kaohsiung Medical University. Male Wistar rats (200-250 g), provided by the National Laboratory Animal Breeding and Research Center (Taipei, Taiwan), were housed under constant temperature and controlled illumination. Food and water were available ad libitum.
(§2) Whole right lung tissues of hypoxia-treated and untreated rats were isolated and cut into small strips and placed into an extraction buffer (Tris 10 mM, pH 7.0, NaCl 140 mM, PMSF 2 mM, DTT 5 mM, NP-40 0.5%, pepstatin A 0.05 mM and leupeptin 0.2 mM) for protein extraction, and then centrifuged at 12,500 g for 30 min. To measure the expression levels of the proteins, the total proteins were extracted and Western blotting analysis was performed as described previously (Bivalacqua T J, et al., 2013, TJ PLoSONE 8: e68028. doi:10.1371/journal. pone.0068028). Briefly, the protein extract was boiled to a ratio of 4:1 with a sample buffer (Tris 100 mM, pH 6.8, glycerol 20%, SDS 4% and bromophenol blue 0.2%). Electrophoresis was performed using 10% SDS-polyacrylamide gel (2 hr, 100 V, 40 mA, […] protein per lane). Separated proteins were transferred to PVDF membranes treated with 5% fat-free milk powder to block the nonspecific IgGs (90 min, 100 V) and incubated for one hour with a specific protein antibody. The blot was then incubated with anti-mouse or anti-goat IgG linked to alkaline phosphatase (1:1000) for 1 hr. Immunoreactive bands were visualized using horseradish peroxidase-conjugated secondary antibodies and subsequent electrochemiluminescence (ECL) detection (GE Healthcare Bio-Sciences Corp., Piscataway, N.J., U.S.A.). Mouse or rabbit monoclonal antibody of eNOS (Upstate, N.Y., U.S.A.), sGCα (Sigma-Adrich, CA, U.S.A., sGCβ (Santa Cruz, Calif., U.S.A.), PDE-5A (BD Tansduction, San Jose, Calif., U.S.A.), PKG (Calbiochem, San Diego, Calif., U.S.A.) ROCKII (Upstate, N.Y., U.S.A.), RhoA (Santa Cruze, Calif., U.S.A.) and the loading control protein β-actin (Sigma-Adrich, MO, U.S.A.) were used in our Western blot analysis.
(§3) The Western blotting analysis measurements were performed as per lung tissue.

[3] = tested on: VEGF; test: Western blotting of VEGF expression in rat carvenosus strip, acute hypoxia; assay type: cell-based; design: unit not given here
[4] = tested on: ROCK II; test: Western blotting of ROCK II expression in isolated rat pulmonary artery ring, short-term (acute) hypoxia or normoxia; assay type: cell-based; conditions: acute hypoxia, Normoxia 100, Hypoxia 560 ± 21
Description: as §1, §2, §3

[5] = tested on: VEGF; test: Western blotting of VEGF expression in isolated rat pulmonary artery ring, short-term (acute) hypoxia; assay type: cell-based
Description: as §1, §2, §3

[6] = tested on: eNOS; test: Streptozotocin (STZ) induced eNOS down-regulation of rat carvenosa tissue; assay type: in vivo; conditions: STZ model; 2.5 mg/kg; Control 100, STZ 60 ± 7.3
Description: (§4) Electrophoresis was performed using 10% SDS-polyacrylamide gel (2 hr, 100 V, 40 mA, […] protein per lane). Separated proteins were transferred to PVDF membranes treated with 5% fat-free milk powder to block the nonspecific IgGs (90 min, 100 V) and incubated for one hour with a specific protein antibody. The blot was then incubated with anti-mouse or anti-goat IgG linked to alkaline phosphatase (1:1000) for 1 hr. Immunoreactive bands were visualized using horseradish peroxidase-conjugated secondary antibodies and subsequent electrochemiluminescence (ECL) detection (GE Healthcare Bio-Sciences Corp., Piscataway, N.J., U.S.A.). Mouse or rabbit monoclonal antibody of eNOS (Upstate, N.Y., U.S.A.), sGCα (Sigma-Adrich, CA, U.S.A., sGCβ (Santa Cruz, Calif., U.S.A.), PDE-5A (BD Tansduction, San Jose, Calif., U.S.A.), PKG (Calbiochem, San Diego, Calif., U.S.A.) ROCKII (Upstate, N.Y., U.S.A.), RhoA (Santa Cruze, Calif., U.S.A.) and the loading control protein β-actin (Sigma-Adrich, MO, U.S.A.) were used in our Western blot analysis.

[7] = tested on: ROCK II; test: Cigarette smoking-induced Rho/ROCK activation of rat pulmonary artery ring; assay type: in vivo; conditions: Nebulization (2.5 mM), Non-Smoking control 100, Smoking 540 ± 28
[8] = tested on: ROCK II; test: as above; assay type: in vivo; conditions: Intraperitoneal (100 mg/kg) 1 h prior to smoke exposure, Non-Smoking control 100, Smoking 530 ± 34
Description: Intraperitoneal SAA complex (100 mg/kg in 200 μl of the solution) or 200 μl of saline (control) were given to animals through intraperitoneal injection 1 h prior to smoke exposure.
as §2

[9] = tested on: ROCK II; test: Streptozotocin (STZ) induced RhoA/ROCKII activation of rat carvenosa tissue; assay type: in vivo; conditions: STZ model; 2.5 mg/kg; Control 100, STZ 142 ± 28
Description: as §4

[10] = Normoxia 100, Hypoxia 62.4 ± 5.5

| Compound | eNOS expression, Carvenosus [1, 10] | eNOS expression, Pulmonary Artery Ring [2] | VEGF expression, Carvenosus ([3]; Normoxia 100, Hypoxia 170 ± 15) | ROCK II expression, Pulmonary Artery Ring [4] | VEGF expression, Pulmonary Artery Ring ([5]; Normoxia 100, Hypoxia 175 ± 14) | eNOS, Carvanosus tissue [6] [%] | ROCK II of pulmonary artery ring [7] | ROCK II of pulmonary artery ring [8] | eNOS expression, Carvenosus ([1]; Normoxia 100, Hypoxia 62.4 ± 5.5, listed as 1007) | eNOS expression, Pulmonary Artery Ring ([2]; listed as 1007) | VEGF expression, Carvenosus ([3]; Normoxia 100, Hypoxia 170 ± 15, listed as 1007) | ROCK II expression, Pulmonary Artery Ring ([4]; listed as 1007) | VEGF expression, Pulmonary Artery Ring ([5]; Normoxia 100, Hypoxia 175 ± 14, listed as 1007) | ROCK II, Carvanosus tissue [9] [%] |
| --- | --- | --- | --- | --- | --- | --- | --- | --- | --- | --- | --- | --- | --- | --- |
| Cn1c(=O)c2c(ncn2CCN2CCN(c3ccc([N+](=O)[O-])cc3)CC2)n(C)c1=O.O=C1O[C@H]([C@@H](O)CO)C(O)=C1O [Example 8, 7-[2-[4-(4-nitrophenyl)piperazinyl]ethyl]-1,3-dimethyl-xanthine ascorbate complex] | 45 ± 4.2 | 80 ± 3.2 | 116 ± 12 | 150 ± 14 | 122 ± 16 | – | – | – | – | – | – | – | – | – |
| CCCc1nn(C)c2c(=O)[nH]c(-c3cc(S(=O)(=O)N4CCN(C)CC4)ccc3OCC)nc12.O=C1OC(C(O)CO)C(O)=C1O [Reagent 1007, Sildenafil L-ascorbate complex] | – | – | – | – | – | 84 ± 8.2 | 66 ± 5.1 | 84 ± 8.2 | 142 ± 6.9 | 160 ± 5.8 | 94 ± 6.8 | 190 ± 7.7 | 92 ± 6.4 | 38 ± 5.1 |
| CCCc1nn(C)c2c(=O)[nH]c(-c3cc(S(=O)(=O)N4CCN(C)CC4)ccc3OCC)nc12.Cl [Reagent 1003, Sildenafil HCl complex] | 110 ± 5.2 | 116 ± 7.2 | 105 ± 16 | – | 94 ± 9.8 | – | 62 ± 4.8 | 82 ± 7.6 | – | – | – | – | – | – |
| Cl.Cn1c(=O)c2c(ncn2CCN2CCN(c3ccccc3Cl)CC2)n(C)c1=O [Reagent 3, 7-[2-[4-(2-chlorophenyl)piperazinyl]ethyl]-1,3-dimethylxanthine HCl Complex] | 102 ± 5.8 | 136 ± 4.6 | 110 ± 9.4 | 255 ± 4.6 | 108 ± 8.2 | 140 ± 5.3 | 76 ± 6.2 | 76 ± 5.3 | – | – | – | – | – | 40 ± 5.2 |
| CCCc1nn(C)c2c(=O)[nH]c(-c3cc(S(=O)(=O)N4CCN(C)CC4)ccc3OCC)nc12 [Reagent 1004, Sildenafil citrate complex, reference compound] | 125 ± 6.9 | 132 ± 6.6 | 105 ± 9.2 | 205 ± 8.5 | 110 ± 3.8 | 74 ± 6.8 | 64 ± 3.8 | 76 ± 6.8 | – | – | – | – | – | 44 ± 3.8 |
| Sildenafil Arginate complex [Reagent 1017] | 124 ± 11 | 180 ± 12 | 90 ± 8.2 | 182 ± 21 | 90 ± 6.4 | – | – | – | – | – | – | – | – | – |
| CCCCCCCC/C=C\CCCCCCCC(=O)O.COc1ccccc1N1CCN(CCn2cnc3c2c(=O)n(C)c(=O)n3C)CC1 [Example 7, 7-[2-[4-(2-methoxyphenyl)piperazinyl]ethyl]-1,3-dimethylxanthine oleate complex] | 122 ± 4.9 | 180 ± 7.6 | 84 ± 8.8 | 190 ± 7.7 | 91 ± 6.5 | – | – | – | – | – | – | – | – | – |
